Test results from ChEMBL document CHEMBL1221311, “The synthesis and structure-activity relationship of 4-benzimidazolyl-piperidinylcarbonyl-piperidine analogs as histamine H3 antagonists” (Bioorg Med Chem Lett, 2010).

What was measured:
Histamine H3 receptor = Histamine H3 receptor (Cavia porcellus, UniProt Q9JI35); experiment: Displacement of [3H]Nalpha-methylhistamine from histamine H3 receptor in guinea pig brain
[1] = target: Histamine H3 receptor (Cavia porcellus) (UniProt Q9JI35); experiment: Displacement of [3H]Nalpha-methylhistamine from histamine H3 receptor in guinea pig brain at 1 uM
Chain of Histamine H3 receptor (Cavia porcellus) (Q9JI35 whole entry): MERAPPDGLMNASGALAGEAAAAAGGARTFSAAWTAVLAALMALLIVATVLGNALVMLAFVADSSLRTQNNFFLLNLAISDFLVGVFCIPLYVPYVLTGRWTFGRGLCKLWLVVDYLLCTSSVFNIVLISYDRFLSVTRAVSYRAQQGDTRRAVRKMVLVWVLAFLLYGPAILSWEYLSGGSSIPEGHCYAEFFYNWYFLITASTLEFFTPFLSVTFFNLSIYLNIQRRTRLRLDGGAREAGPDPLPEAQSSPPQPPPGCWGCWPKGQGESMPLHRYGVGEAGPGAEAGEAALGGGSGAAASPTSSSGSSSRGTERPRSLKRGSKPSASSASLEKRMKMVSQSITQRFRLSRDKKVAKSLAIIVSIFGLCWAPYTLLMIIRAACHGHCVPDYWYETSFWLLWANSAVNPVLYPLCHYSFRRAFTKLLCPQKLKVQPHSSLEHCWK

[2] = Clearance in human hepatocytes assessed per million cells; assay type: ADME, cell-based, Liver, Hepatocyte
Cavia porcellus = experiment: Antihypertensive activity in po dosed guinea pig assessed as inhibition of (R)-alpha-methylhistamine-induced hypertension; assay type: functional
Cytochrome P450 2D6 = Cytochrome P450 2D6 (Homo sapiens, UniProt P10635); experiment: Inhibition of CYP2D6 in human liver microsomes; assay type: ADME, Microsome
Chain of Cytochrome P450 2D6 (P10635 whole entry): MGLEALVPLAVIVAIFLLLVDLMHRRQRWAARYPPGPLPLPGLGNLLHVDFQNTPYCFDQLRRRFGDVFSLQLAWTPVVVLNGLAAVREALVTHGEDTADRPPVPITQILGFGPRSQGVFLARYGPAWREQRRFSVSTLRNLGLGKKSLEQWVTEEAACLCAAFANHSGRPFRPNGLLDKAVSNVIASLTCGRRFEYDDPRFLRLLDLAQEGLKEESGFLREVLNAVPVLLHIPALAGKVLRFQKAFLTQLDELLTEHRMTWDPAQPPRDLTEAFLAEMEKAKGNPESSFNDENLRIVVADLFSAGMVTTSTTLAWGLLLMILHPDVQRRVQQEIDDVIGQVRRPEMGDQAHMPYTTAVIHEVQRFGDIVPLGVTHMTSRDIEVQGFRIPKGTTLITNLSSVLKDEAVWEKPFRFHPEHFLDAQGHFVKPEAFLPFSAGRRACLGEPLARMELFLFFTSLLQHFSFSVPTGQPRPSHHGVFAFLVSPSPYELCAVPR

hERG (KCNH2) = hERG (KCNH2) (Homo sapiens, UniProt Q12809); experiment: Inhibition of human ERG at 10 uM
Chain of hERG (KCNH2) (Q12809 whole entry): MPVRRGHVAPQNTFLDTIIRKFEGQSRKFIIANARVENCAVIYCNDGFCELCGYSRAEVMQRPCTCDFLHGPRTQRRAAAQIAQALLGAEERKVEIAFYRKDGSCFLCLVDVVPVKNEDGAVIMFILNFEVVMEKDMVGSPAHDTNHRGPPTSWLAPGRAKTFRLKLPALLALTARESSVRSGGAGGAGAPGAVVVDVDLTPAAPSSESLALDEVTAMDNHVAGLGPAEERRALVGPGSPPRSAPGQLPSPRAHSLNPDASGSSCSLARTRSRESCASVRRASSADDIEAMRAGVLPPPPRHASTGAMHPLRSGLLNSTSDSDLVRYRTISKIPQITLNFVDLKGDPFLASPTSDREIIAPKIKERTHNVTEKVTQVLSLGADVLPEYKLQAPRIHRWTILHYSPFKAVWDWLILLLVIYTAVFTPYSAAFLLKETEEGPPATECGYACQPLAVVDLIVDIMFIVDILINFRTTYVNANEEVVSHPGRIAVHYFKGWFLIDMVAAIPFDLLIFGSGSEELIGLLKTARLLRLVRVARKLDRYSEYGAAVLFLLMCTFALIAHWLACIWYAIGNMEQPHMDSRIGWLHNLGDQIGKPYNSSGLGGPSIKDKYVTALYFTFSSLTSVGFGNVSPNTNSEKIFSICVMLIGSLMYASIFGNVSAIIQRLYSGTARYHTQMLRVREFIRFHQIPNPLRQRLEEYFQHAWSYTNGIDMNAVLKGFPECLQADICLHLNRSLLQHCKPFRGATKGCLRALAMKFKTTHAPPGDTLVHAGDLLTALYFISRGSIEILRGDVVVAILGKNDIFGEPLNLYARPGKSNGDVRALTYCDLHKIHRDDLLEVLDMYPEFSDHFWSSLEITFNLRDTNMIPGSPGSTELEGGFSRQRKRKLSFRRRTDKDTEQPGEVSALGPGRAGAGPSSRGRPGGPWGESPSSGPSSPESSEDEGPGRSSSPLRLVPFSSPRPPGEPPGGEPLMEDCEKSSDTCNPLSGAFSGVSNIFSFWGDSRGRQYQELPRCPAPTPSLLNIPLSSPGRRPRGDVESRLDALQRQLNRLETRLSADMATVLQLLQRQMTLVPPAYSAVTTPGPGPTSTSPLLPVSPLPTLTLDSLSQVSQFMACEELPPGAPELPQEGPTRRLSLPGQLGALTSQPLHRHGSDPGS

Cytochrome P450 3A4 = Cytochrome P450 3A4 (Homo sapiens, UniProt P08684); experiment: Inhibition of CYP3A4 in human liver microsomes; assay type: ADME, Microsome
Chain of Cytochrome P450 3A4 (P08684 whole entry): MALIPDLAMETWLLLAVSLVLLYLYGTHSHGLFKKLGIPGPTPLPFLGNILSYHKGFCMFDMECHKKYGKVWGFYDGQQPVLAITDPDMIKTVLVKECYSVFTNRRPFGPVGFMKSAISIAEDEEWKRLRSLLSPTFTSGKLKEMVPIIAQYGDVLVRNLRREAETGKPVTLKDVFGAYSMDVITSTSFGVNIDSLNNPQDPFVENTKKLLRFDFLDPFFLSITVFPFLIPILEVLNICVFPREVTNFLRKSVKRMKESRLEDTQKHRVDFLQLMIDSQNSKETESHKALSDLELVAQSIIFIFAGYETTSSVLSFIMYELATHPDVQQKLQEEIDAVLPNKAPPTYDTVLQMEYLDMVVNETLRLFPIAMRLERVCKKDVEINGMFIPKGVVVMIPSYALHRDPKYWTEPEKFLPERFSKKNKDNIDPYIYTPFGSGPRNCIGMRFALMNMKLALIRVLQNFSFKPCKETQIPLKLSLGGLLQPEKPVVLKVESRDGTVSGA

[3] = AUC in rat at 10 mg/kg, po; assay type: ADME, organism-based; set-up: dose 10 mg/kg, route oral; conditions: plasma
Cytochrome P450 2C9 = Cytochrome P450 2C9 (Homo sapiens, UniProt P11712); experiment: Inhibition of CYP2C9 in human liver microsomes; assay type: ADME, Microsome
Chain of Cytochrome P450 2C9 (P11712 whole entry): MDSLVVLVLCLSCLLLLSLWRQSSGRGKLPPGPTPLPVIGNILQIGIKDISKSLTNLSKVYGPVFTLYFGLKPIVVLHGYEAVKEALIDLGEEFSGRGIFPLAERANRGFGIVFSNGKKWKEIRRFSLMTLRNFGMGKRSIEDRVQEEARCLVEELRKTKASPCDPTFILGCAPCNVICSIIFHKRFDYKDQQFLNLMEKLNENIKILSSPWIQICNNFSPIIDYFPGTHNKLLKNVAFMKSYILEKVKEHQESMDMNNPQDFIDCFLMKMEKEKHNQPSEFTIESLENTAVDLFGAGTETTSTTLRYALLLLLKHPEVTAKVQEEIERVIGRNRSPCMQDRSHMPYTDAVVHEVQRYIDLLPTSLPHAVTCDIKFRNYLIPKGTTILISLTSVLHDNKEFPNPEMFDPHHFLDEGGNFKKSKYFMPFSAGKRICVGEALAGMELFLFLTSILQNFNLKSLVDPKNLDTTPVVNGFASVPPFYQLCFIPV

[4] = Clearance in rat hepatocytes assessed per million cells; assay type: ADME, cell-based, Liver, Hepatocyte

Chain of Histamine H3 receptor (Q9JI35 whole entry): as the sequence (Q9JI35 whole entry) above

SMILES | Ki (Histamine H3 receptor) | IC50 (Cytochrome P450 2D6) | IC50 (Cytochrome P450 3A4) | further results
O=C(C1CCN(Cc2ccncc2)CC1)N1CCN(c2ccccc2)CC1 | 40 nM |  |  | 
Cn1ccc(CN2CCC(C(=O)N3CCC(n4c(=O)[nH]c5ccccc54)CC3)CC2)c1 |  |  |  | inhibition [1]: 42%
O=C(C1CCN(Cc2ccoc2)CC1)N1CCC(n2c(=O)[nH]c3ccccc32)CC1 | 204 nM |  |  | 
O=C(C1CCN(Cc2cccnc2)CC1)N1CCC(n2c(=O)[nH]c3ccccc32)CC1 | 174 nM |  |  | 
O=C(C1CCN(Cc2ccncc2)CC1)N1CCC(O)(Cc2ccccc2)CC1 | 30 nM |  |  | 
O=c1[nH]c2ccccc2n1C1CCN(CC2CCN(Cc3ccncc3)CC2)CC1 | 24 nM |  |  | 
COCCCNC(=O)c1cccc(CN2CCN(C(=O)C3CCN(Cc4ccncc4)CC3)CC2)c1 | 210 nM |  |  | 
O=C(C1CCN(CCc2ccncc2)CC1)N1CCC(n2c(=O)[nH]c3ccccc32)CC1 | 537 nM |  |  | 
O=C(C1CCN(Cc2ccccn2)CC1)N1CCC(n2c(=O)[nH]c3ccccc32)CC1 |  |  |  | inhibition [1]: 40%
O=C(C1CCN(Cc2ccncc2)CC1)N1CCC(n2c(=O)[nH]c3ccccc32)CC1 | 2 nM | > 20000 nM | 9500 nM | hepatocyte CLint [2]: < 10 µL/min/1e6 cells; ED50 (Cavia porcellus): < 0.3 mg/kg; inhibition at 10 µM (hERG (KCNH2)): < 10%; AUC [3]: 0.24 µM·h; IC50 (Cytochrome P450 2C9): > 20000 nM; hepatocyte CLint [4]: < 10 µL/min/1e6 cells
O=C(CC1CCN(Cc2ccncc2)CC1)N1CCC(n2c(=O)[nH]c3ccccc32)CC1 | 180 nM |  |  | 
O=C(C1CCN(Cc2ccnc3ccccc23)CC1)N1CCC(n2c(=O)[nH]c3ccccc32)CC1 | 681 nM |  |  | 
CN1CCN(C(=O)C2CCN(Cc3ccncc3)CC2)CC1 | 355 nM |  |  | 
CN(C)CCCn1c(=O)n(C2CCN(C(=O)C3CCN(Cc4ccncc4)CC3)CC2)c2ccccc21 |  | 1600 nM | > 30000 nM | IC50 (Cytochrome P450 2C9): > 20000 nM
O=C(C1CCN(Cc2ccncc2Cl)CC1)N1CCC(n2c(=O)[nH]c3ccccc32)CC1 | 222 nM |  |  | 
Cn1cc(CN2CCC(C(=O)N3CCC(n4c(=O)[nH]c5ccccc54)CC3)CC2)c2ccccc21 |  |  |  | inhibition [1]: 30%
O=C(C1CCN(Cc2ccsc2)CC1)N1CCC(n2c(=O)[nH]c3ccccc32)CC1 | 104 nM |  |  | 
O=C(c1ccncc1)N1CCC(C(=O)N2CCC(n3c(=O)[nH]c4ccccc43)CC2)CC1 |  |  |  | inhibition [1]: 11%
O=C(C1CCN(Cc2cc[n+]([O-])cc2)CC1)N1CCC(n2c(=O)[nH]c3ccccc32)CC1 | 440 nM |  |  | 

Second part, led by results:

Ki (Histamine H3 receptor) | IC50 (Cytochrome P450 2D6) | IC50 (Cytochrome P450 3A4) | SMILES | further results
17 nM |  |  | O=C(N1CCC(n2c(=O)[nH]c3ccccc32)CC1)N1CCN(Cc2ccncc2)CC1 | 
20 nM |  |  | CC(c1ccncc1)N1CCC(C(=O)N2CCC(n3c(=O)[nH]c4ccccc43)CC2)CC1 (configuration not stated) | 
28 nM |  |  | O=C(C1CCN(Cc2ccncc2)CC1)N1CCN(Cc2ccccc2)CC1 | 
17 nM |  |  | O=C(c1ccccc1)C1CCN(C(=O)C2CCN(Cc3ccncc3)CC2)CC1 | 
0.4 nM | 1900 nM | 1500 nM | CC(C)Cn1c(=O)n(C2CCN(C(=O)C3CCN(Cc4ccncc4)CC3)CC2)c2ccccc21 | 
27 nM |  |  | O=C(NCCc1ccccc1)c1cccc(CN2CCN(C(=O)C3CCN(Cc4ccncc4)CC3)CC2)c1 | 
4.3 nM | > 20000 nM | 7500 nM | Cn1c(=O)n(C2CCN(C(=O)C3CCN(Cc4ccncc4)CC3)CC2)c2ccccc21 | 
14 nM |  |  | O=C(C1CCN(Cc2ccncc2)CC1)N1CCN(C2CCCCC2)CC1 | 
0.8 nM | > 20000 nM | 10600 nM | CCOCCCn1c(=O)n(C2CCN(C(=O)C3CCN(Cc4ccncc4)CC3)CC2)c2ccccc21 | 
0.2 nM | 9100 nM | 400 nM | O=C(C1CCN(Cc2ccncc2)CC1)N1CCC(n2c(=O)n(Cc3ccccc3)c3ccccc32)CC1 | 
4.5 nM | 6700 nM | 500 nM | O=C(C1CCN(Cc2ccncc2)CC1)N1CCC(n2c(=O)n(Cc3ccccc3Cl)c3ccccc32)CC1 | 
0.2 nM | 10500 nM | > 30000 nM | CN(C)CCn1c(=O)n(C2CCN(C(=O)C3CCN(Cc4ccncc4)CC3)CC2)c2ccccc21 | hepatocyte CLint [2]: < 10 µL/min/1e6 cells; ED50 (Cavia porcellus): < 0.3 mg/kg; inhibition at 10 µM (hERG (KCNH2)): < 10%; AUC [3]: 0.24 µM·h; IC50 (Cytochrome P450 2C9): > 20000 nM; hepatocyte CLint [4]: < 10 µL/min/1e6 cells
2 nM | 4200 nM | 300 nM | O=C(C1CCN(Cc2ccncc2)CC1)N1CCC(n2c(=O)n(Cc3cccc(Cl)c3)c3ccccc32)CC1 | 
0.25 nM | 20000 nM | 400 nM | COc1ccc(Cn2c(=O)n(C3CCN(C(=O)C4CCN(Cc5ccncc5)CC4)CC3)c3ccccc32)cc1 | 
0.15 nM | 3700 nM | 30000 nM | O=C(C1CCN(Cc2ccncc2)CC1)N1CCC(n2c(=O)n(CCN3CCCCC3)c3ccccc32)CC1 | hepatocyte CLint [2]: < 10 µL/min/1e6 cells; ED50 (Cavia porcellus): < 0.3 mg/kg; inhibition at 10 µM (hERG (KCNH2)): < 10%; AUC [3]: 0.24 µM·h; IC50 (Cytochrome P450 2C9): > 20000 nM; hepatocyte CLint [4]: < 10 µL/min/1e6 cells
0.65 nM | > 20000 nM | 6000 nM | CC(C)OCCn1c(=O)n(C2CCN(C(=O)C3CCN(Cc4ccncc4)CC3)CC2)c2ccccc21 | 
0.5 nM | > 20000 nM | 30000 nM | O=C(C1CCN(Cc2ccncc2)CC1)N1CCC(n2c(=O)n(CCN3CCOCC3)c3ccccc32)CC1 | hepatocyte CLint [2]: < 10 µL/min/1e6 cells; ED50 (Cavia porcellus): < 0.3 mg/kg; inhibition at 10 µM (hERG (KCNH2)): < 10%; AUC [3]: 0.24 µM·h; IC50 (Cytochrome P450 2C9): > 20000 nM; hepatocyte CLint [4]: < 10 µL/min/1e6 cells
20 nM |  |  | O=C(C1CCN(Cc2ccncc2)CC1)N1CCC2(CC1)C(=O)NCN2c1ccccc1 | 
5.5 nM |  |  | O=C(C1CCN(Cc2ccncc2)CC1)N1CCC(Cc2ccccc2)CC1 | 
0.3 nM | 5600 nM | 200 nM | COc1cccc(Cn2c(=O)n(C3CCN(C(=O)C4CCN(Cc5ccncc5)CC4)CC3)c3ccccc32)c1 | 
0.9 nM | 5800 nM | 400 nM | O=C(C1CCN(Cc2ccncc2)CC1)N1CCC(n2c(=O)n(Cc3ccc(Cl)cc3)c3ccccc32)CC1 | 
2 nM | > 20000 nM | 11000 nM | COCCn1c(=O)n(C2CCN(C(=O)C3CCN(Cc4ccncc4)CC3)CC2)c2ccccc21 | 
2 nM | 20000 nM | 9000 nM | O=C(C1CCN(Cc2ccncc2)CC1)N1CCC(n2c(=O)n(CCOc3ccccc3)c3ccccc32)CC1 | 
1.7 nM | > 20000 nM | 13500 nM | CCOCCn1c(=O)n(C2CCN(C(=O)C3CCN(Cc4ccncc4)CC3)CC2)c2ccccc21 | 
6.3 nM |  |  | O=C(C1CCN(Cc2ccncc2)CC1)N1CCN(Cc2cccc(Cl)c2)CC1 | 
0.95 nM | > 20000 nM | > 30000 nM | O=C(C1CCN(Cc2ccncc2)CC1)N1CCC(n2c(=O)n(CCO)c3ccccc32)CC1 | 
